The results in this text go back to patent US8877747B2, “Indenone derivative and pharmaceutical composition comprising same” (Korea Research Institute of Chemical Technology, priority 2009, dated 2014).

Where a name gives a salt, the structure may show the parent alone.

The experiment deals with MC3T3-E1 cells. Nature of the experiment: ALP activity, differentiation of osteoblast cells. Format: cell-based. The settings on record: Mus musculus, MC3T3-E1, 144 h; MC3T3E1 cells treated with 10 μM compound and OF; relates activity to OF-only group (100%); higher = more efficacious. The method, then: To examine the effects of the inventive indenone derivatives on the differentiation and activation of osteoblast cells, the activity and expression of alkaline phosphatase (ALP), a marker for the differentiation of osteoblast cells, and the bone nodule formation using a mouse derived osteoblast-like cells, MC3T3-E1 (ATCC, Japan) or a primary mouse calvaria derived preosteoblastic cells were observed.
MC3T3-E 1 cells were seeded in a medium containing osteogenic factors (OF) such as ascorbic acids and β-glycerophosphates (b-GP), and each compound of Examples was added thereto at a concentration of 0.1, 1 and 10 μM. The cells were incubated for 6 days (MC3T3-E1 cells) or 7 days (primary mouse calvaria derived preosteoblastic cells) in a 37° C. CO2 incubator. Then, the culture medium was replaced with a fresh medium together with the test compound every two or three days. On the last day, the medium was centrifuged to remove the supernatant, and the cells were washed with PBS. The washed cells were subjected to a 3-cycle freege-thaw treatment using a −70° C. deep freezer to allow enzymes elute in a lysis buffer. The lysed protein was quantified, followed by measurement of ALP activity using 4-nitrophenylphosphate.
Further, a group treated only with DMSO or OF was tested for ALP activities for comparison.

On to `CS(=O)(=O)N1CCN(CCCOc2ccc3c(c2)C(=O)C(c2cccnc2)=C3c2cc(F)cc(F)c2)CC1` [Example 68, 3-(3,5-difluorophenyl)-6-(3-(4-(methylsulfonyl)piperazin-1-yl)propoxy)-2-(pyridin-3-yl)-1H-inden-1-one hydrochloride salt], for which the activity at 10 µM was 164%.
In the case of `CC(C)(C)OC(=O)N1CCC(CCOc2ccc3c(c2)C(=O)C(c2cccnc2)=C3c2cc(F)cc(F)c2)CC1` [Example 69, tert-butyl 4-(2-(3-(3,5-difluorophenyl)-1-oxo-2-(pyridin-3-yl)-1H-inden-6-yloxy)ethyl)piperidine-1-carboxylate] it was 72%; in that of `O=C1C(c2cccnc2)=C(c2cc(F)cc(F)c2)c2ccc(OCCC3CCNCC3)cc21` [Example 70, 3-(3,5-difluorophenyl)-6-(2-(piperidin-4-yl)ethoxy)-2-(pyridin-3-yl)-1H-inden-1-one hydrochloride salt], 19%.
Take `CN1CCC(CCOc2ccc3c(c2)C(=O)C(c2cccnc2)=C3c2cc(F)cc(F)c2)CC1` [Example 71, 3-(3,5-difluorophenyl)-6-(2-(1-methylpiperidin-4-yl)ethoxy)-2-(pyridin-3-yl)-1H-inden-1-one hydrochloride salt]: the activity at 10 µM stood at 19%.
For `CC(=O)N1CCC(CCOc2ccc3c(c2)C(=O)C(c2cccnc2)=C3c2cc(F)cc(F)c2)CC1` [Example 72, 6-(2-(1-acetylpiperidin-4-yl)ethoxy)-3-(3,5-difluorophenyl)-2-(pyridin-3-yl)-1H-inden-1-one hydrochloride salt], the activity at 10 µM turned out to be 58%.
On to `CS(=O)(=O)N1CCC(CCOc2ccc3c(c2)C(=O)C(c2cccnc2)=C3c2cc(F)cc(F)c2)CC1` [Example 73, 3-(3,5-difluorophenyl)-6-(2-(1-(methylsulfonyl)piperidin-4-yl)ethoxy)-2-(pyridin-3-yl)-1H-inden-1-one hydrochloride salt], for which the activity at 10 µM was found to be 150%.
Turning to `O=C1C(c2cccnc2)=C(c2cc(F)cc(F)c2)c2ccc(OCCN3CCS(=O)(=O)CC3)cc21` [Example 74, 6-[2-(1,1-dioxothiomorpholin-4-yl)ethoxy]-3-(3,5-difluorophenyl)-2-(pyridin-3-yl)-1H-inden-1-one hydrochloride salt], the activity at 10 µM turned out to be 206%.
For `O=C1C(c2cccnc2)=C(c2cc(F)cc(F)c2)c2ccc(OCCC3CCOCC3)cc21` [Example 78, 3-(3,5-difluorophenyl)-2-(pyridin-3-yl)-6-(2-(tetrahydro-2H-pyran-4-yl)ethoxy)-1H-inden-1-one], the activity at 10 µM amounted to 187%.
In the case of `O=C1C(c2cccnc2)=C(c2cc(F)cc(F)c2)c2ccc(OCC3CCCO3)cc21` (stereo not drawn) [Example 79, 3-(3,5-difluorophenyl)-2-(pyridin-3-yl)-6-((tetrahydrofuran-2-yl)methoxy)-1H-inden-1-one], the activity at 10 µM came out at 110%.
Turning to `O=C1C(c2cccnc2)=C(c2ccccc2F)c2ccc(OCCN3CCOCC3)cc21` [Example 80, 6-(2-morpholinoethoxy)-3-(2-fluorophenyl)-2-(pyridin-3-yl)-1H-inden-1-one], the activity at 10 µM turned out to be 74%.
Turning to `O=C1C(c2cccnc2)=C(c2cccc(F)c2)c2ccc(OCCN3CCOCC3)cc21` [Example 81, 6-(2-morpholinoethoxy)-3-(3-fluorophenyl)-2-(pyridin-3-yl)-1H-inden-1-one], the activity at 10 µM was found to be 116%.
Then `O=C1C(c2cccnc2)=C(c2ccc(F)cc2F)c2ccc(OCCN3CCOCC3)cc21` [Example 82, 6-(2-morpholinoethoxy)-3-(2,4-difluorophenyl)-2-(pyridin-3-yl)-1H-inden-1-one], with 178%.
In the case of `O=C1C(c2ccccn2)=C(c2ccccc2)c2ccc(OCCN3CCOCC3)cc21` [Example 83, 6-(2-morpholinoethoxy)-3-phenyl-2-(pyridin-2-yl)-1H-inden-1-one] it was 18%.
In the case of `O=C1C(c2ccc3c(c2)OCO3)=C(c2ccccc2)c2ccc(OCCN3CCOCC3)cc21` [Example 85, 2-(benzo[1,3]dioxol-5-yl)-6-(2-morpholinoethoxy)-3-phenyl-1H-inden-1-one] it was 77%; in that of `O=C1C(c2ccc(Cl)s2)=C(c2ccccc2)c2ccc(OCCN3CCOCC3)cc21` [Example 86, 2-(5-chlorothiophen-2-yl)-6-(2-morpholinoethoxy)-3-phenyl-1H-inden-1-one], 77%; in that of `Cn1ccc2cc(C3=C(c4ccccc4)c4ccc(OCCN5CCOCC5)cc4C3=O)ccc21` [Example 87, 2-(1-methyl-1H-indol-5-yl)-6-(2-morpholinoethoxy)-3-phenyl-1H-inden-1-one], 71%.
In the case of `O=C1C(c2ccc[nH]2)=C(c2ccccc2)c2ccc(OCCN3CCOCC3)cc21` [Example 90, 6-(2-morpholinoethoxy)-3-phenyl-2-(1H-pyrrol-2-yl)-1H-inden-1-one], the activity at 10 µM was 63%.
For `O=C1C(c2cc3ccccc3o2)=C(c2ccccc2)c2ccc(OCCN3CCOCC3)cc21` [Example 91, 6-(2-morpholinoethoxy)-2-(benzofuran-2-yl)-3-phenyl-1H-inden-1-one], the activity at 10 µM stood at 67%.
In the case of `O=C1C(c2cnc3ccccc3c2)=C(c2cc(F)cc(F)c2)c2ccc(OCCN3CCS(=O)(=O)CC3)cc21` [Example 92, 3-(3,5-difluorophenyl)-6-[2-(1,1-dioxothiomorpholin-4-yl)ethoxy]-2-(quinolin-3-yl)-1H-inden-1-one hydrochloride salt] it was 262%; in that of `COc1ccc(C2=C(c3cc(F)cc(F)c3)c3ccc(OCCN4CCS(=O)(=O)CC4)cc3C2=O)cn1` [Example 93, 3-(3,5-difluorophenyl)-2-(6-methoxypyridin-3-yl)-6-[2-(1,1-dioxothiomorpholin-4-yl)ethoxy]-1H-inden-1-one hydrochloride salt], 155%; in that of `Cc1ccc(C2=C(c3cc(F)cc(F)c3)c3ccc(OCCN4CCS(=O)(=O)CC4)cc3C2=O)cc1` [Example 94, 3-(3,5-difluorophenyl)-6-[2-(1,1-dioxothiomorpholin-4-yl)ethoxy]-2-p-tolyl-1H-inden-1-one hydrochloride salt], 109%.
In the case of `COc1ccc(C2=C(c3cc(F)cc(F)c3)c3ccc(OCCN4CCS(=O)(=O)CC4)cc3C2=O)cc1F` [Example 95, 2-(3-fluoro-4-methoxyphenyl)-3-(3,5-difluorophenyl)-6-[2-(1,1-dioxothiomorpholin-4-yl)ethoxy]-1H-inden-1-one hydrochloride salt], the activity at 10 µM was determined as 203%.
Then `CS(=O)(=O)N1CCN(CCOc2ccc3c(c2)C(=O)C(c2cnc4ccccc4c2)=C3c2cc(F)cc(F)c2)CC1` [Example 96, 3-(3,5-difluorophenyl)-6-{2-[4-(methylsulfonyl)piperazin-1-yl]ethoxy}-2-(quinolin-3-yl)-1H-inden-1-one hydrochloride salt], with 152%; and `COc1ccc(C2=C(c3cc(F)cc(F)c3)c3ccc(OCCN4CCN(S(C)(=O)=O)CC4)cc3C2=O)cn1` [Example 97, 3-(3,5-difluorophenyl)-2-(6-methoxypyridin-3-yl)-6-{2-[4-(methylsulfonyl)piperazin-1-yl]ethoxy}-1H-inden-1-one hydrochloride salt], with 179%.
`Cc1ccc(C2=C(c3cc(F)cc(F)c3)c3ccc(OCCN4CCN(S(C)(=O)=O)CC4)cc3C2=O)cc1` [Example 98, 3-(3,5-difluorophenyl)-6-{2-[4-(methylsulfonyl)piperazin-1-yl]ethoxy}-2-p-tolyl-1H-inden-1-one hydrochloride salt]: the activity at 10 µM worked out at 146%.
Turning to `COc1ccc(C2=C(c3cc(F)cc(F)c3)c3ccc(OCCN4CCN(S(C)(=O)=O)CC4)cc3C2=O)cc1F` [Example 99, 2-(3-fluoro-4-methoxyphenyl)-3-(3,5-difluorophenyl)-6-{2-[4-(methylsulfonyl)piperazin-1-yl]ethoxy}-1H-inden-1-one hydrochloride salt], the activity at 10 µM turned out to be 212%.
Turning to `COc1ccc(C2=C(c3cc(F)cc(F)c3)c3ccc(OCCC4CCN(S(C)(=O)=O)CC4)cc3C2=O)cn1` [Example 100, 3-(3,5-difluorophenyl)-2-(6-methoxypyridin-3-yl)-6-{2-[1-(methylsulfonyl)piperidin-4-yl]ethoxy}-1H-inden-1-one hydrochloride salt], the activity at 10 µM was 185%.
On to `CS(=O)(=O)N1CCC(CCOc2ccc3c(c2)C(=O)C(c2cnc4ccccc4c2)=C3c2cc(F)cc(F)c2)CC1` [Example 101, 3-(3,5-difluorophenyl)-6-{2-[1-(methylsulfonyl)piperidin-4-yl]ethoxy}-2-(quinolin-3-yl)-1H-inden-1-one hydrochloride salt], for which the activity at 10 µM was found to be 216%.
Take `COc1ccc(C2=C(c3cc(F)cc(F)c3)c3ccc(OCCC4CCN(S(C)(=O)=O)CC4)cc3C2=O)cc1F` [Example 102, 3-(3,5-difluorophenyl)-2-(3-fluoro-4-methoxyphenyl)-6-{2-[1-(methylsulfonyl)piperidin-4-yl]ethoxy}-1H-inden-1-one]: the activity at 10 µM turned out to be 220%.
For `Cc1ccc(C2=C(c3cc(F)cc(F)c3)c3ccc(OCCC4CCN(S(C)(=O)=O)CC4)cc3C2=O)cc1` [Example 103, 3-(3,5-difluorophenyl)-6-{2-[1-(methylsulfonyl)piperidin-4-yl]ethoxy}-2-p-tolyl-1H-inden-1-one], the activity at 10 µM turned out to be 209%.
